Assay results published in a melting point compilation (Tetko et al.).
Peptide text beside a SMILES is read from it.

melting point	Structure (SMILES)
290 to 292 °C	Cc1c(C(=O)O)sc2ccc(Cl)cc12
162 °C	c1ccc2c(c1)cc1ccc3cccc4c5ccccc5c2c1c34
92 °C	Ic1cc2ccccc2c2ccccc12
260 °C	NCCC(=O)N[C@@H](Cc1c[nH]cn1)C(=O)O
35 to 38 °C	Cc1noc(C)c1C=O
31 °C	CC(=O)OC1Cc2ccccc21 (centres undefined)
54 °C	CC(=O)CS(C)(=O)=O
163 °C	CCN(CC)c1ccc(C=C2SC(=S)NC2=O)cc1
299 °C	Cn1ncc2c(NCCOC(=O)c3cc([N+](=O)[O-])cc([N+](=O)[O-])c3)ncnc21
42 °C	CC(C)(C)c1ccc(N=C=S)cc1
285 to 290 °C	O=c1[nH]c2ccc(Br)cc2c(=O)o1
151 °C	Nc1ccc(C=CC(=O)c2ccccc2)cc1
-1 °C	CCCCCCCC/C=C\CCCCCCCC#N
73 to 76 °C	Cn1nccc1N
197 °C	O=C(Oc1ccc(Cl)cc1)c1ccc(C(=O)Oc2ccc(Cl)cc2)cc1
20 °C	c1ccc2c(c1)CCCN2
217 °C	CNc1ccc(O)c2c1C(=O)c1c(O)ccc(NC)c1C2=O
126 °C	CC(=O)c1ccc(-c2ccc(Br)cc2)cc1
35 °C	CCN(Cc1ccccc1)c1ccccc1
57 to 59 °C	CCOC(=O)C=Cc1ccc(O)c(OC)c1
133 °C	CCOC(=O)C(OC(=O)c1ccccc1)c1cc(C(OC(=O)c2ccccc2)C(=O)OCC)c([N+](=O)[O-])cc1[N+](=O)[O-] (centres undefined)
141 °C	NC(=O)c1ccco1

melting point	Structure (SMILES)
95 to 97 °C	N#CCc1ccc(OS(=O)(=O)c2ccc(Cl)cc2)cc1
127 to 131 °C	COc1ccc(CCN2CC(C(=O)O)CC2=O)cc1OC (centres undefined)
56 to 60 °C	Cc1nc(-c2cccc(Br)c2)cs1
205 to 206 °C	CC(C)=C/C=C/C=N/Nc1ccc([N+](=O)[O-])cc1[N+](=O)[O-]
149 to 150 °C	CCOC(=O)c1nnn2c3ccccc3c(=O)n(C)c12
117 °C	C(=NC(N=Cc1ccco1)c1ccco1)c1ccco1 (centres undefined)
148 °C	CC(=C/C=N/NC(N)=O)C(C)(C)C
69 °C	CN(C)c1ccc(CO)cc1
225 °C	CC(=O)C1(O)C(O)CC2C3CCC4=CC(=O)CCC4(C)C3CCC21C (centres undefined)
123 °C	COc1cccc(C(=O)O)c1OC
163 to 164 °C	O=c1c(Cl)c(Cl)cnn1-c1ccccc1
-72 °C	FC(F)(Cl)C(F)(Cl)C(F)(F)Cl
59 to 63 °C	Cc1cc(N)no1
186 °C	Cc1nc2cc(O)ccc2s1
121 °C	CC(=O)Oc1cc(C(F)(F)F)ccc1C(=O)O
176 °C	COc1ccc(C(=O)c2noc(-c3ccc([N+](=O)[O-])cc3)c2S(=O)(=O)c2ccccc2)cc1
222 to 223 °C	O=C1c2ccccc2-c2ccc([N+](=O)[O-])cc21
88.5 °C	CN(C(=O)Cl)c1ccccc1
96 to 100 °C	O=Cc1ccc2cccc(O)c2n1
342 °C	O=C(O)c1ccc(C(=O)O)o1
40 to 41 °C	COC(=O)c1cc(C)c(S(=O)(=O)Cl)s1
162 to 163 °C	Cc1c(C(=O)O)[nH]c2ccccc12

melting point	Structure (SMILES)
270 °C	CC(=O)Nc1ccccc1C=Cc1cc(C=Cc2ccccc2NC(C)=O)c([N+](=O)[O-])cc1[N+](=O)[O-]
63 to 64.2 °C	CCCCCCCC(=O)Oc1ccc(/N=N/c2ccc(CCCC)cc2)cc1
57 to 60 °C	O=Cc1ccsc1Sc1ccc(Cl)cc1
50 °C	CCOC(=O)C(CO)(CO)C(=O)OCC
196 to 198 °C	NC(=O)c1sc(NCc2ccccc2)nc1N
300 °C	N[C@H]1CC[C@@H](C(=O)O)CC1
11 °C	NCCCO
140 °C	O=C(NCCBr)c1cc([N+](=O)[O-])cc([N+](=O)[O-])c1
123 °C	O=C(O)C(O)c1ccc(F)cc1F (centres undefined)
121 to 122 °C	COC(=O)/C(=C/c1ccc([N+](=O)[O-])cc1)c1ccccc1C(=O)OC
105 °C	CC(=O)CC(=O)Nc1ccccc1C
174 °C	CC(C)(C)N(NC(=O)c1ccccc1)C(=O)c1cccc(C#N)c1
201 to 205 °C	Nc1nccnc1C(=O)O
44 to 47 °C	CCOC(=O)c1sc(C)nc1-c1ccccc1
90.5 °C	CC(C)(C)C(=O)C(=O)O
202 to 206 °C	NC(=O)c1cc(Cl)nc(Cl)c1
106 °C	CC(CS)C(=O)N1CCCC1C(=O)O (centres undefined)
49 to 53 °C	COC(=O)c1ccc(OC)cc1O
93 °C	NNC(=O)CCCO
183 °C	O=[N+]([O-])c1ccc(C=Cc2ccc([N+](=O)[O-])cc2)cc1
148 to 149 °C	CO[C@]1(CBr)O[C@H](COC(=O)c2ccc(C)cc2)[C@@H](OC(=O)c2ccc(C)cc2)[C@@H]1OC(=O)c1ccc(C)cc1
96 °C	CCN(Cc1ccncc1)C(=O)C(CO)c1ccccc1 (centres undefined)

melting point	Structure (SMILES)
28 to 30 °C	CCCCCCCCCCC(=O)c1ccccc1
188 °C	N#Cc1cc([N+](=O)[O-])cc(Br)c1N
57.6 °C	c1ccc(CCNc2cccc3cccnc23)cc1
188 °C	O=C1CC(=O)CC(c2ccccc2)C1
120 °C	CN1CCN(C2=C(Cl)C(=O)c3ccccc3C2=O)CC1
279 °C	Cn1c(=O)c(C2=NNC(=O)C2=C2C(=O)Nc3ccccc32)c(O)c2ccccc21
45 to 47 °C	Cc1cc(Br)cc(Cl)c1O
310 to 312 °C	CC(C)(C)c1cc2c(O)c(c1)Cc1cc(C(C)(C)C)cc(c1O)Cc1cc(C(C)(C)C)cc(c1O)Cc1cc(C(C)(C)C)cc(c1O)Cc1cc(C(C)(C)C)cc(c1O)C2
5 °C	CC(=O)SCC(C)C(=O)O (centres undefined)
58 to 60 °C	Nc1c(Br)cc(F)c(F)c1F
126 °C	CS(=O)(=O)Cc1ccccc1
37.8 °C	Cc1ccc(I)cc1
87 to 90 °C	O=C(Oc1c(F)c(F)c(F)c(F)c1F)c1ccccc1N1CCOCC1
126 to 129 °C	CCOC(=O)c1csc(Cn2cnc(Cl)c2Cl)n1
28.5 °C	CCCCCCCCCCCCCCCC(=O)OCC=C(C)C=CC=C(C)C=CC1=C(C)CCCC1(C)C
70 °C	CCCCOc1ccc(-c2nnc3sc(-c4ccc(Cl)c([N+](=O)[O-])c4)nn23)cc1
237 °C	Cc1csc(NS(=O)(=O)c2ccc(N)cc2)n1
72 °C	O=C1C(CCl)(CCl)CCC1(CCl)CCl
182 °C	CCOC(=O)c1cnn(C)c1S(=O)(=O)NC(=O)Nc1nc(OC)cc(OC)n1
134 to 137 °C	CC(C)(C)OC(=O)NCCCC[C@H](NC(=O)OCC1c2ccccc2-c2ccccc21)C(=O)O
300 °C	CNC(C)(C)C(=O)O
40 °C	COc1cc(F)c(F)cc1OC

melting point	Structure (SMILES)
16 to 18 °C	CCOC(=O)C(=O)CC(C)=O
12.5 °C	CCCCCCCC=O
195 to 198 °C	O=C(O)CN1C(=O)c2ccccc2C1=O
267 °C	C[Si](C)(C)[Si]([Si](C)(C)C)([Si](C)(C)C)[Si](C)(C)C
261 °C	CC12CCC(=O)C=C1CCC1C3CCC(O)(C(=O)CO)C3(C)CC(O)C12F (centres undefined)
187 °C	FC(F)(F)c1nn(CN2CCN(Cn3nc(C(F)(F)F)n(N=Cc4cccs4)c3=S)CC2)c(=S)n1N=Cc1cccs1
34 °C	CC(C)C(=NO)C(C)C
286 to 288 °C	C[C@H](N)C(=O)N[C@@H](C)C(=O)O (H-Ala-Ala-OH)
131 to 136 °C	CC(C)(C)OC(=O)NC(Cc1ccccc1)C(=O)NN (centres undefined)
242 °C	CS(=O)(=O)c1ccc(-c2cn3ccccc3n2)cc1
243 to 245 °C	O=C1C(=O)N(O)C2CCCCC2N1O (centres undefined)
64.5 to 65.5 °C	CC(=O)Oc1ccc(OC(C)=O)c(C(C)(C)C)c1
209 °C	CC12CCC(/C(=N/O)C/C1=N\O)C2(C)C (centres undefined)
144 °C	COC(=O)c1cc(C(=O)OC)c(C(=O)OC)cc1C(=O)OC
240 °C	OC12CC3CC(CC(C3)C1)C2
9 °C	NCCCCCN
105 °C	O=C(OOC(=O)c1ccccc1)c1ccccc1
92 to 96 °C	CC(C)(C)OC(=O)N[C@@H](Cc1ccccc1F)C(=O)O
194 °C	O=C1c2ccccc2C(=O)c2c(O)cccc21
266 °C	CC1C(=O)C23C(O)CC4C(C)(CO)CCCC4(CO)C2C(O)CC1C3O (centres undefined)
20 °C	Cc1ccc2c(c1)CCC(C)C2 (centres undefined)
77.7 °C	N#CC(=NOCC1OCCO1)c1ccccc1

Structure (SMILES)	melting point
FC(F)(F)c1ccccc1CBr	34 to 35 °C
Oc1cc(Cl)cc(Cl)c1Cl	62 °C
CC12CCC(=O)C=C1CCC1C2CCC2(C)C(OCc3ccccc3)CCC12 (centres undefined)	198 to 199 °C
CCC(=O)C(CC(C)N1CCOCC1)(c1ccccc1)c1ccccc1 (centres undefined)	75 °C
COC(=O)C1(O)c2ccccc2-c2ccc(Cl)cc21 (centres undefined)	155 °C
Nc1ccncc1Br	67 to 71 °C
CC(Oc1cc(Cl)c(Cl)cc1Cl)C(=O)O (centres undefined)	182 °C
c1ccc2cc3cc4ccccc4cc3cc2c1	357 °C
CC(CO)c1c(O)c(O)c2c(c1O)C(=O)C(=O)C1C2(C)CCC(O)C1(C)C (centres undefined)	214 to 216 °C
CC1(C)C(C(=O)OC(C#N)c2cccc(Oc3ccccc3)c2)C1(C)C (centres undefined)	47.5 °C
CC(C#N)CCC#N (centres undefined)	-45 °C
O=c1oc2ccccc2c(O)c1C1CC(c2ccc(-c3ccc(Br)cc3)cc2)Cc2ccccc21 (centres undefined)	230 °C
CCCCCCCCCCCCCCCCCCOO	49.5 °C
CNC(=O)Oc1ccc2c(c1)C1(C)CCN(C)C1N2C (centres undefined)	106 °C
